Test system: social defeat stress-bearing C57BL/6J mice
Assay: Social defeat stress: escape time (time taken to be bitten 20 times by the male ICR mouse)
Format: in vivo
Conditions: for escape time, average value: C57BL/6J mice, L. helveticus as living cells orally once a day
Experimental: In the present experiment, an experiment of causing a small mouse to experience social defeat by allowing the small mouse to be bitten many times by a large mouse was carried out, and an effect of Lactobacillus helveticus on behavioral changes caused by social defeat stress (decrease in escape behavior, a lethargic state) was investigated. In the present experiment, C57BL/6J mice were used as social defeat stress-bearing mice. In a cage of male and female ICR mice cohabiting for three weeks or longer, only the male parent was left. A C57BL/6J mouse was brought into that cage, and the time taken by the C57BL/6J mouse to be bitten 20 times by the male parent mouse (escape time) was measured. As the escape time increases, it is implied that the C57BL/6J mouse attempts to escape from the ICR mouse, and therefore, it was determined that the social defeat stress is reduced. From two days before the beginning of giving social defeat stress until the end of the behavioral test, the experiment was carried out respectively for mice to which milnacipran was administered (Toledomin tablets; manufactured by Janssen Pharmaceutical K.K.) (positive control), mice to which nothing was administered (vehicle control), and mice to which living bacterial cells of Lactobacillus helveticus NITE BP-01671 were orally administered once a day using a sonde needle.

In the case of `CCN(CC)C(=O)C1(c2ccccc2)CC1CN` (stereo not shown) [milnacipran], the “escape time compared to the vehicle control (in words)” value (C57BL/6J mice under social defeat stress, summary of Table 1) is reported as “increased significantly compared to the vehicle control”, the “escape time, average value” (Day 1, administered from two days before stress) is reported as 24.6 s and the “escape time, average value” (Day 2) is reported as 42.9 s. The “escape time, average value” (Day 3) was 65.9 s, the “escape time, average value” (Day 4) was 63.2 s and the “escape time, average value” (Day 5) was 81.0 s. For the same compound, the “escape time, average value” (Day 8) was 114.8 s, the “escape time, average value” (Day 9) was 159.0 s and the “escape time, average value” (Day 10) was 183.2 s. For the same compound, the “escape time, average value” (Day 11) was 183.9 s, the “escape time, average value” (Day 12) was 143.2 s and the “escape time, average value” (Day 15) was 68.7 s. For the same compound, the “escape time, average value” (Day 16) was 46.9 s.
